Two molecules from patent US10851096B2, “Aryl and heteroaryl amides for use as anti-proliferative, anti-thrombotic, and anti-viral agents” (Rutgers, The State University of New Jersey, priority 2016, dated 2020) can be followed below.

The structures appear in SMILES notation. pIC50: −log10 of the molar value.

Data set [1] deals with T1, hAxl/IFN-γR1 (Homo sapiens, UniProt P30530).
T1 construct: containing human Axl extracellular domains and transmembrane and intracellular domains of human IFN-γR1; human IFN-γR1 transmembrane and intracellular domains (fusion partner); expressed in transfected cells
T1 sequence (P30530 26-451 limits assumed): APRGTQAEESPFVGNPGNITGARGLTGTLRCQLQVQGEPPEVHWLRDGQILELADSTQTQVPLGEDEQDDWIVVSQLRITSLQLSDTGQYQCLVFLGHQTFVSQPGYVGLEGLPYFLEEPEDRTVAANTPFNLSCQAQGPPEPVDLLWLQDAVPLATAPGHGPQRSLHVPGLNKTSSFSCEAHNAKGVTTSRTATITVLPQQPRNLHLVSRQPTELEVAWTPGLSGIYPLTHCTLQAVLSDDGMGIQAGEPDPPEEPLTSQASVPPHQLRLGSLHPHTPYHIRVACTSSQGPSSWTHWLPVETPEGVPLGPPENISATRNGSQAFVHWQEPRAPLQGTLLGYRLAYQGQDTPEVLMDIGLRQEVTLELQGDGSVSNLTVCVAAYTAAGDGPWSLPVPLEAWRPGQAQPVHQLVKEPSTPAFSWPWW
As to the kind of experiment: hAxl/IFN-γR1 CHO reporter cell line assay, Gas6-induced activation (pSTAT1 immunoblot). It counts as cell-based. As to conditions: for apparent EC50, anti-Axl activity: Axl reporter system; for pIC50: dose-response, FIG. 2A/2B, read-out: IC50, Axl-inhibitory activity on hAxl/IFN-γR1 reporter cell lines. How it is done:
Stable HEK 293 cells secreting human Gas6 (clone 7.4.1) were allowed to achieve 70% confluence in a 10-cm plate. The complete medium with 10% FBS was then changed into serum free media in the presence of 10 µg/mL vitamin K1 (Phytonadione injectable emulsion from Hospira). After 72 hours, the Gas6 conditioned medium was collected, and validated for the presence of Gas6 and γ-carboxylation (by immunoblot) and activity of Gas6 (via activation of pSTAT1 in hAxl/γR1 cells).
(§1) Stable hAxl/IFN-γR1 CHO reporter cell lines (containing human Axl extracellular domains and transmembrane and intracellular domains of human IFN-γR1) were serum starved for 5 hrs±small molecule inhibitors and then stimulated with human Gas6 conditioned media±small molecule inhibitors for 30 minutes. For H1299 human non-small cell lung carcinoma and MDA-MB-231 human breast adenocarcinoma cell lines, the cells were serum starved overnight±small molecule inhibitors and stimulated with human Gas6 conditioned media±small molecule inhibitors for 30 minutes. Whole cell lysates of hAxl/IFN-γR1, H1299 and MDA-MB-231 cells were prepared using HNTG buffer (20 mM HEPES, pH 7.5, 150 mM NaCl, 10% glycerol, 1% Triton X-100, 1 mM PMSF, 1 mM Na3VO4, 10 mM Na2MoO4, 1 mM EDTA, 10 mM NaF and 20 μg/mL aprotinin). The resulting lysates were resolved on SDS-PAGE gel and immunoblotted with respective antibodies.
Immunoblot data were obtained within a linear range of exposure, and intensities were quantified by ImageJ. The levels of hAxl/IFN-γR1 cells lines activation were measured by pSTAT1 whereas the levels of H1299 and MDA-MB-231 cell lines activation were measured by pAxl signal intensities. Blots were normalized to intensities of respective β-actin or GAPDH protein loading controls. The levels of pSTAT1 or pAxl activation induced by Gas6±small molecule inhibitors were plotted as a fold of enhancement or reduction over intensities induced by Gas6 alone.
Background: Immunoblotting shows a protein as a band on a membrane.

For data set [2], the target named is T2, native Axl (Homo sapiens, UniProt P30530).
T2 construct: Gas6-inducible phosphorylation of native Axl (pAxl); endogenous in cells; host or cells: MDA-MB-231
T2 sequence (P30530 26-894): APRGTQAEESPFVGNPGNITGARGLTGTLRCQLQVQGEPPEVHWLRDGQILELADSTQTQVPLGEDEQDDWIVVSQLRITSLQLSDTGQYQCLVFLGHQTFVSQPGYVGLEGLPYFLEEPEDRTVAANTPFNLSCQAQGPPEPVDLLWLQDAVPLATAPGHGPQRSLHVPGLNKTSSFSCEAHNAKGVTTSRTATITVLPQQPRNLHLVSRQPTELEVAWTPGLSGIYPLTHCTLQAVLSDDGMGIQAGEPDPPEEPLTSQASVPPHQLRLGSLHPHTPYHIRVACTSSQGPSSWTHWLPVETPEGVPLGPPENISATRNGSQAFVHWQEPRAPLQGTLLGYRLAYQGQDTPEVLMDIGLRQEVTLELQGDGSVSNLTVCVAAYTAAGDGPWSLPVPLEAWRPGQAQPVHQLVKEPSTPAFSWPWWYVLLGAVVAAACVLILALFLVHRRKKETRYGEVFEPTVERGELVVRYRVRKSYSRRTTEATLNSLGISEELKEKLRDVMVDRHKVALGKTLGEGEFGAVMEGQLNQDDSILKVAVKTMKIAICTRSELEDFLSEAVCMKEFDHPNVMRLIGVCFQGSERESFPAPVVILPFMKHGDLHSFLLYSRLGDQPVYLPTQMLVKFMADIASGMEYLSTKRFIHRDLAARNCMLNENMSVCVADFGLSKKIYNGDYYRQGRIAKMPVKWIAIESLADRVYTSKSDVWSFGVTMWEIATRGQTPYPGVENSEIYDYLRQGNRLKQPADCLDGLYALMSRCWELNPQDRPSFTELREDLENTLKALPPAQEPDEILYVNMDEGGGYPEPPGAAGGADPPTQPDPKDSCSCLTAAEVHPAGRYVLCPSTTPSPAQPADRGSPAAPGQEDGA
Briefly: Gas6-inducible phosphorylation of native Axl in H1299 cells (immunoblot). It counts as cell-based. Particulars: H1299 lung cancer cell line, FIG. 5B. The protocol:
as §1
Immunoblot data were obtained within a linear range of exposure, and intensities were quantified by ImageJ. The levels of hAxl/IFN-γR1 cells lines activation were measured by pSTAT1 whereas the levels of H1299 and MDA-MB-231 cell lines activation were measured by pAxl signal intensities. Blots were normalized to intensities of respective β-actin or GAPDH protein loading controls. […]

In data set [3] the test system is MDA-MB-231 cells. As to the kind of experiment: Real-time migration assay (RTCA DP Xcelligence), MDA-MB-231. The class given is cell-based, human. As to conditions: Gas6-inducible MDA-MB-231 cells. How it is done: H1299 and MDA-MB-231 cells lines were seeded in complete medium and allowed to attain ˜80% confluence and then serum starved overnight in medium containing 0.5% FBS. The cells were then detached by Accutase (Sigma), counted and resuspended in serum-free RPMI-1640 medium. In the lower chamber of the CIM plate, 1×RPMI-1640 containing 10% FBS was added as a chemoattractant. In the top chamber, 50 μl of 1×RPMI-1640 was added to all wells. Both chambers were assembled, loaded in the Xcelligence system, and run for 30 min for equilibration or background readings. One hundred microliters of each cell line suspended in 1×RPMI-1640 (40,000 cells/100 μl)±Gas6±small molecule inhibitors then were added in triplicates in upper chamber wells. Readings for changes in the cell index (CI) were taken every 10 min for 24 h and migration was shown as a change in cell index versus time.

Data set [4] has as its system normal (non-cancerous) cells. As to the kind of experiment: Cytotoxicity assays using normal (non-cancerous) cells. It counts as cell-based.

For `Cc1noc(C)c1CSc1ccccc1C(=O)N1CCN(c2cccc(C(F)(F)F)c2)CC1` [1I], in data set [1], the remaining activity at 10 µM was 20%; the “apparent EC50, anti-Axl activity” value is “low micro-molar range”; the pIC50 is 5.94. In data set [2], the “inhibition of activation (phosphorylation) of Axl” value was “potent inhibition”. For the same molecule, the “motility (real-time, cell index)” value in data set [3] was “suppressed motility”. In addition, in data set [4], the cellular toxicity entry was “no discernible cellular toxicity”.
Regarding `Cc1cc(CSc2ccccc2C(=O)NCCNc2ccc(C(F)(F)F)cc2[N+](=O)[O-])on1` [1Q], in data set [1], the remaining activity at 10 µM came to 10%; the “apparent EC50, anti-Axl activity” value is given as “low micro-molar range”; the pIC50 is 5.90. In addition, the “inhibition of activation (phosphorylation) of Axl” value in data set [2] is given as “potent inhibition”. Further, the “motility (real-time, cell index)” value in data set [3] is “suppressed motility”. In addition, the cellular toxicity entry in data set [4] is “no discernible cellular toxicity”.
